Results: PMC7873226, “Molecular mechanism and structural basis of small-molecule modulation of the gating of acid-sensing ion channel 1” (Communications Biology, 2021)
Where “and” joins values, the source holds several entries; their conditions need not be identical. Equal values may be shown once.

Experiments:
Format in all cases: cell-based
rat ASIC1a [1] = molecular target: T1, rat ASIC1a (Rattus norvegicus, UniProt P55926); experiment: pH dependence of channel activation (whole-cell patch clamp); conditions: holding pH 8.2
T1 construct: expressed in transfected cells
T1 sequence (P55926 1-526): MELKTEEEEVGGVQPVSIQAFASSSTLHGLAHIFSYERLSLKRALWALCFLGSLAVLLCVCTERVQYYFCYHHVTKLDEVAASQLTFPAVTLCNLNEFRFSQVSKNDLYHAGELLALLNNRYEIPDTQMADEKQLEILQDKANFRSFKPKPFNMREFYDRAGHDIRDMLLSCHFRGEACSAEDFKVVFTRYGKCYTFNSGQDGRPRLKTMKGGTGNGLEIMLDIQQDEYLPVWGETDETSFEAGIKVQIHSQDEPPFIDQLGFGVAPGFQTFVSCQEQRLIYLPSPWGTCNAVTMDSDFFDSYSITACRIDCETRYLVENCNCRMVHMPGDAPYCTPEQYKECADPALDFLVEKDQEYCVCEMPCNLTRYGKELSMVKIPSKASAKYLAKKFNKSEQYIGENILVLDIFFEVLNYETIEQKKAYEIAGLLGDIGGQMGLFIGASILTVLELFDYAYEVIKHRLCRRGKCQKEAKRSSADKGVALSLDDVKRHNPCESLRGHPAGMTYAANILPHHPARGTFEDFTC
Protocol: (§1) Chinese Hamster Ovary (CHO) cells stably expressing rat ASIC1a were cultured in Ham’s F12, supplemented with 10% FBS, 1% penicillin–streptomycin and 500 µg/mL G418 and incubated at 37 °C with 5% CO2. Transient transfections of rASIC1a and cASIC1 wild-type or mutant channels in CHO cells were performed with Lipofectamine 3000 (Thermo Fisher Scientific) according to the manufacturer’s recommendations. The green fluorescent protein (GFP) cDNA (at 1/10 the amount of channel cDNA) was co-transfected with channel cDNA to aid the identification of transfected cells under the microscope in patch clamp experiments. All cDNAs were sequence verified.
(§2) Cells were freshly dissociated with CellStripper (Corning) and dispersed in a chamber on the stage of an inverted microscope. Upon formation of the whole-cell conformation, the cell was lifted from the bottom of the chamber and placed at the tip of a tubing perfusing an extracellular solution containing (in mM): 149 NaCl, 2 CaCl2, 4 KCl, 1 MgCl2, 5 glucose, 10 HEPES, pH 7.4, 310 mOsm/L. Extracellular solutions at more basic or acidic pHs were made by titrating the above pH 7.4 solution with NaOH or HCl (5 mM MES was added to solutions at pH 6.0 and lower). Pipette electrodes were filled with an intracellular solution containing (in mM): 135 KCl, 4 MgATP, 0.3 Na2GTP, 10 EGTA, and 20 HEPES, pH 7.2, 290 mOsm/L.
(§3) All recordings were performed at room temperature using an Axopatch 200B amplifier and pClamp 11 software (Molecular Devices). Currents were measured by whole-cell patch clamp, digitized at 10 kHz and lowpass filtered at 2 kHz. Series resistance was 75% compensated. Responses were elicited by rapid perfusion of acidic solutions using the SF-77B Fast-Step Perfusion device (Warner Instruments) for 40 ms once every 30 s (unless indicated otherwise) and recorded till steady state was reached. The holding potential was 0 mV unless indicated otherwise.
(§4) Baseline values (i.e., current amplitudes at the conditioning pH) were subtracted to obtain responses evoked by the test pH. Responses were normalized for each cell before averaging (see figure legends for more detail on normalization for each type of experiment). Concentration–response data were fitted to a logistic function of the form: R = (A1–A2)/(1 + (C/C0)^h)+A2, where R is the normalized response, C is either pH or compound concentration, C0 is the pH/concentration at which half-maximal response occurs (pH50 or IC50), h is the Hill coefficient, and A1 and A2 are constants. Kinetic parameters were obtained by fitting the data with either a single or double exponential function. Fitted data are shown as solid, dashed, or dotted curves.

rat ASIC1a [2] = molecular target: T1, rat ASIC1a; experiment: pH dependence of steady-state desensitization (whole-cell patch clamp)
Protocol: as §1, §2, §3, §4

rat ASIC1a [3] = molecular target: T1, rat ASIC1a; experiment: Kinetics of closed-state (pH 7.1-induced) desensitization and recovery; conditions: 100 nM
Protocol: as §1, §2, §3, §4

rat ASIC1a [4] = molecular target: T1, rat ASIC1a; experiment: Kinetics of onset of and recovery (wash) from compound inhibition; conditions: 100 nM; for pH 6.8-induced current, % pH7.4 control: holding pH 7.4, one cell; for pH 6.8-induced current, % pH8.2 control: holding pH 8.2, one cell
Protocol: as §1, §2, §3, §4

- max %response of channel activation (rat ASIC1a [1]; 10 nM): 95.3 ± 1.6%
- pH50 of channel activation (rat ASIC1a [1]; 10 nM): 6.02 ± 0.03
- max %response of channel activation (rat ASIC1a [1]; 30 nM): 88.1 ± 1.0%
- pH50 of channel activation (rat ASIC1a [1]; 30 nM): 5.87 ± 0.02
- max %response of channel activation (rat ASIC1a [1]; 100 nM): 82.6 ± 0.3%
- pH50 of channel activation (rat ASIC1a [1]; 100 nM): 5.73 ± 0.00
- max %response of channel activation (rat ASIC1a [1]; 300 nM): 84.1 ± 0.5%
- pH50 of channel activation (rat ASIC1a [1]; 300 nM): 5.70 ± 0.01
- max %response of channel activation (rat ASIC1a [1]; 1000 nM): 87.4 ± 0.5%
- pH50 of channel activation (rat ASIC1a [1]; 1000 nM): 5.68 ± 0.01
- max %response of channel activation (rat ASIC1a [1]; 3000 nM): 82.9 ± 0.5%
- pH50 of channel activation (rat ASIC1a [1]; 3000 nM): 5.70 ± 0.01
- overshoot of maximum wash current above pre-block control level (rat ASIC1a [4]; holding pH 7.4): > 50%
- pH 6.8-induced current, % pH7.4 control (rat ASIC1a [4]; t = 0 s): 4.9%
- pH 6.8-induced current, % pH7.4 control (rat ASIC1a [4]; t = -10 s): 4.7%
- pH 6.8-induced current, % pH7.4 control (rat ASIC1a [4]; t = -20 s): 3.6%
- pH 6.8-induced current, % pH7.4 control (rat ASIC1a [4]; t = -30 s): 3.3%
- pH 6.8-induced current, % pH7.4 control (rat ASIC1a [4]; t = -40 s): 4.5%
- pH 6.8-induced current, % pH7.4 control (rat ASIC1a [4]; t = -50 s (wash starts at t = 0 s)): 6.7%
- pH 6.8-induced current, % pH8.2 control (rat ASIC1a [4]; t = 0 s): 4.5%
- pH 6.8-induced current, % pH8.2 control (rat ASIC1a [4]; t = -10 s): 7.4%
Compound: Cc1cc(N2CC(Oc3cc(F)c4c(N)n[nH]c4c3)C2)c(F)cn1 [JNJ-67869386]
- pH50 of steady-state desensitization (rat ASIC1a [2]; 0.1 µM): 7.30 ± 0.03
- pH50 of steady-state desensitization (rat ASIC1a [2]; 1 µM): 7.27 ± 0.01
- pH50 of steady-state desensitization (rat ASIC1a [2]; 10 µM): 7.26 ± 0.01
- steady-state desensitization, current % of conditioning pH 8.2, mean (rat ASIC1a [2]; conditioning pH 6.8, 100 nM): 0.13%
- steady-state desensitization, current % of conditioning pH 8.2, mean (rat ASIC1a [2]; conditioning pH 6.8, 1 uM): 0.0205%
- steady-state desensitization, current % of conditioning pH 8.2, mean (rat ASIC1a [2]; conditioning pH 6.8, 10 uM): -0.0952%
- steady-state desensitization, current % of conditioning pH 8.2, mean (rat ASIC1a [2]; conditioning pH 7.1, 100 nM): 1.6%
- steady-state desensitization, current % of conditioning pH 8.2, mean (rat ASIC1a [2]; conditioning pH 7.1, 1 uM): 9.0%
- steady-state desensitization, current % of conditioning pH 8.2, mean (rat ASIC1a [2]; conditioning pH 7.1, 10 uM): 10.8%
- steady-state desensitization, current % of conditioning pH 8.2, mean (rat ASIC1a [2]; conditioning pH 7.4, 100 nM): 88.8%
- steady-state desensitization, current % of conditioning pH 8.2, mean (rat ASIC1a [2]; conditioning pH 7.4, 1 uM): 84.6%
- steady-state desensitization, current % of conditioning pH 8.2, mean (rat ASIC1a [2]; conditioning pH 7.4, 10 uM): 85.5%
- steady-state desensitization, current % of conditioning pH 8.2, mean (rat ASIC1a [2]; conditioning pH 7.8, 100 nM): 98.6%
- steady-state desensitization, current % of conditioning pH 8.2, mean (rat ASIC1a [2]; conditioning pH 7.8, 1 uM): 95.5%
- steady-state desensitization, current % of conditioning pH 8.2, mean (rat ASIC1a [2]; conditioning pH 7.8, 10 uM): 95.9%
- steady-state desensitization, current % of conditioning pH 8.2, mean (rat ASIC1a [2]; conditioning pH 8.2, 100 nM): 100%
- steady-state desensitization, current % of conditioning pH 8.2, mean (rat ASIC1a [2]; conditioning pH 8.2, 1 uM): 100%
- steady-state desensitization, current % of conditioning pH 8.2, mean (rat ASIC1a [2]; conditioning pH 8.2, 10 uM): 100%
- current remaining during pH 7.1-induced desensitization, normalized to pre-pH 7.1 pH 6.0 peak, mean (rat ASIC1a [3]; 0.8 s in pH 7.1 (source data Fig. 3c)): 75.8
- current remaining during pH 7.1-induced desensitization, normalized to pre-pH 7.1 pH 6.0 peak, mean (rat ASIC1a [3]; 1.6 s in pH 7.1): 70.1
- current remaining during pH 7.1-induced desensitization, normalized to pre-pH 7.1 pH 6.0 peak, mean (rat ASIC1a [3]; 3.2 s in pH 7.1): 61.0
- current remaining during pH 7.1-induced desensitization, normalized to pre-pH 7.1 pH 6.0 peak, mean (rat ASIC1a [3]; 6.4 s in pH 7.1): 50.5
- current remaining during pH 7.1-induced desensitization, normalized to pre-pH 7.1 pH 6.0 peak, mean (rat ASIC1a [3]; 12.8 s in pH 7.1): 36.9
- current remaining during pH 7.1-induced desensitization, normalized to pre-pH 7.1 pH 6.0 peak, mean (rat ASIC1a [3]; 25.6 s in pH 7.1): 20.0
- current remaining during pH 7.1-induced desensitization, normalized to pre-pH 7.1 pH 6.0 peak, mean (rat ASIC1a [3]; 51.2 s in pH 7.1): 8.7
- current remaining during pH 7.1-induced desensitization, normalized to pre-pH 7.1 pH 6.0 peak, mean (rat ASIC1a [3]; 102.4 s in pH 7.1): 4.9
- current remaining during pH 7.1-induced desensitization, normalized to pre-pH 7.1 pH 6.0 peak, mean (rat ASIC1a [3]; 204.8 s in pH 7.1): 3.1
- time constant of development of pH 7.1-induced desensitization (rat ASIC1a [3]; single exponential, pH 6.0 test pulses): 15.1 s and 15.1 ± 1.3 s
